# Patent publication US20060205826A1, “Method of using carotenoids in the prevention of cognitive decline and for other neuroprotection functions” (priority 2005, published 2006)
# What was measured:
# alloxan diabetic mice [1] = experiment: Hyperglycemic status (blood glucose) of alloxan diabetic mice; assay type: in vivo; details: for glycemia: diabetic mice
# Experimental: (§1) Male albino mice were used throughout the study, housed in a environmentally regulated room on a dark-light cycle of 12 hours with free access to food and water. Principles of laboratory animal care (NIH publication no. 85-23, revised 1985) were followed, as well as specific Spanish regulations. Animals were made diabetic with a single subcutaneous injection of 200 mg alloxan/kg body weight (66 mg/ml) in 0.1 M citrate buffer, pH 4.5, at day 0 of the experiment. Control mice were injected with the same volume of vehicle also at day 0 of the experiment. Mice were identified as diabetic on the basis of blood glucose levels (higher than 16 mM at least 4 days after alloxan treatment). Animals were divided into subgroups as required by the experiment (control, control+lutein, diabetic, diabetic+lutein, diabetic+insulin, diabetic+insulin+lutein). […] Insulin treated animals were injected daily with 500 mU/g body weight since day 4 until the end of the experiment. Mice were killed by cervical dislocation on day 14, and hippocampus and retina were removed and homogenized in pre-chilled 0.2 M potassium phosphate buffer, pH 7.0. These homogenates were used to assay protein, GPx activity and MDA and GSH concentrations. Samples were kept frozen (−80° C.) until biochemical assays were performed. Blood was taken from the tail vein daily to assay blood glucose levels. Glycated hemoglobin was determined in blood samples obtained by heart puncture immediately before killing the animals.
# GPx activity = GPx activity in eye and hippocampus homogenate of diabetic mice; assay type: in vivo
# Experimental: as §1, with “animals. GPx activity was assayed as reported by Lawrence et al. (1978) towards hydrogen peroxide. The disappearance of NADPH was followed spectrophotometrically at 340 nm. The reaction mixture consisted of 240 mU/ml of glutathione disulfide reductase, 1 mM GSH, 0.15 mM NADPH in 0.1 M potassium phosphate buffer, pH 7.0, containing 1 mM EDTA and 1 mM sodium azide; 50 μl sample were added to this mixture and allowed to equilibrate at 37° C. for 3 min. reaction was started by the addition of 1.5 mM hydrogen peroxide to adjust the final volume of the assay mixture to 1 ml.” for “animals.”
# alloxan diabetic mice [2] = experiment: Morris water maze (spatial learning and memory) in diabetic mice; assay type: in vivo
# Experimental: Male albino mice were used throughout the study, housed in a environmentally regulated room on a dark-light cycle of 12 hours with free access to food and water. Principles of laboratory animal care (NIH publication no. 85-23, revised 1985) were followed, as well as specific Spanish regulations. Animals were made diabetic with a single subcutaneous injection of 200 mg alloxan/kg body weight (66 mg/ml) in 0.1 M citrate buffer, pH 4.5, at day 0 of the experiment. Control mice were injected with the same volume of vehicle also at day 0 of the experiment. Mice were identified as diabetic on the basis of blood glucose levels (higher than 16 mM at least 4 days after alloxan treatment). Animals were divided into subgroups as required by the experiment (control, control+lutein, diabetic, diabetic+lutein, diabetic+insulin, diabetic+insulin+lutein). Lutein was administered daily at a dose of 0.2 mg/kg p.o since day 4 after alloxan or citrate buffer injection until the end of the experiment. […] Glycated hemoglobin was determined in blood samples obtained by heart puncture immediately before killing the animals. […] We measured the duration from the time the mouse was dropped into the maze to the time the mouse climbed onto the platform (latency time). The latency was recorded manually using a stopwatch. […] The percentage of time spent in each of the pool quadrants was also recorded.
# alloxan diabetic mice [3] = details: diabetic animals; Miranda et al., 2004; cited from earlier work
compound,measurement,setting,value
CC1=C[C@H](O)CC(C)(C)[C@H]1/C=C/C(C)=C/C=C/C(C)=C/C=C/C=C(C)/C=C/C=C(C)/C=C/C1=C(C)C[C@@H](O)CC1(C)C [Lutein],hyperglycemic status,"alloxan diabetic mice [1]; alloxan diabetic mice, fourteen days after alloxan injection",did not alter
same,glycemia,alloxan diabetic mice [1]; lutein 0.2 mg/kg p.o. on days 4-13 (hippocampus section),no effect
same,glycemia,alloxan diabetic mice [1]; lutein 100 mg/kg p.o. on days 4-13 (retina section),no effect
same,retinal GPx activity,"GPx activity; eye homogenate without lens, lutein 100 mg/kg p.o. or insulin 500 mU/g s.c. on days 4-13",protected
same,GPx activity in hippocampus homogenate,GPx activity; lutein 0.2 mg/kg p.o. or insulin 500 mU/g s.c. on days 4-13,restored
same,escape latencies in the Morris water maze,alloxan diabetic mice [2],diminished
same,b-wave amplitude of the electroretinogram,alloxan diabetic mice [3],restored
